These are literature values, as cited in paper PMC5600712 (ACS chemical biology, 2017).

Data set [1] has as its system proteasome. The following applies: α,β-epoxyketone proteasome inhibitor.
Data set [2] deals with class I HDACs. Conditions: class I compared with class II HDACs.

On to `CC(C)C[C@H](NC(=O)[C@H](CCc1ccccc1)NC(=O)CN1CCOCC1)C(=O)N[C@@H](Cc1ccccc1)C(=O)N[C@@H](CC(C)C)C(=O)[C@@]1(C)CO1` [carfilzomib], for which the “covalent adduct formation with proteasome” value in data set [1] is reported as “forms a covalent adduct to block proteasome function”.
As to HC toxin, in data set [2], the “selectivity of binding, class I versus class II HDACs” value was “tighter binding of these inhibitors to class I HDACs”.
